Each block holds one molecule with its values, some of them ahead of it. The source made the active and inactive calls.
Key:
Candida albicans [1] = experiment: fluconazole resistance reversal in C. albicans, dose response, CaCi-2 strain, Alamar Blue, dry powder, set 4 (AID 488943); format: functional, organism-based
Candida albicans [2] = experiment: growth inhibition of azole-resistant C. albicans, dose response, CaCi-8 strain, Alamar Blue, dry powder, set 2 (AID 488909); format: functional, organism-based
Candida albicans [3] = experiment: growth inhibition of resistant C. albicans, dose response, CaCi-8 strain, fluconazole, dry powder, set 4 (AID 488950); format: functional, organism-based
Candida albicans [4] = experiment: C. albicans growth inhibition with fluconazole, dose response, antifungal resistance reversal project, CaCi-2 strain, Alamar Blue, dry powder, set 2 (AID 488930); format: functional, organism-based
Candida albicans [5] = experiment: Candida albicans growth inhibition, compound alone, dose response, counter-screen for antifungal drug resistance project, CaCi-2 strain, Alamar Blue, dry powder, set 2 (AID 488893); format: functional, organism-based
[6] = biological target: T1, Sentrin-specific protease 6 (Homo sapiens, UniProt Q9GZR1); experiment: SENP6 protease inhibitors, SAR follow-up, biochemical, luminescence, set 2 (AID 588598); format: functional
T1 sequence (Q9GZR1 whole entry): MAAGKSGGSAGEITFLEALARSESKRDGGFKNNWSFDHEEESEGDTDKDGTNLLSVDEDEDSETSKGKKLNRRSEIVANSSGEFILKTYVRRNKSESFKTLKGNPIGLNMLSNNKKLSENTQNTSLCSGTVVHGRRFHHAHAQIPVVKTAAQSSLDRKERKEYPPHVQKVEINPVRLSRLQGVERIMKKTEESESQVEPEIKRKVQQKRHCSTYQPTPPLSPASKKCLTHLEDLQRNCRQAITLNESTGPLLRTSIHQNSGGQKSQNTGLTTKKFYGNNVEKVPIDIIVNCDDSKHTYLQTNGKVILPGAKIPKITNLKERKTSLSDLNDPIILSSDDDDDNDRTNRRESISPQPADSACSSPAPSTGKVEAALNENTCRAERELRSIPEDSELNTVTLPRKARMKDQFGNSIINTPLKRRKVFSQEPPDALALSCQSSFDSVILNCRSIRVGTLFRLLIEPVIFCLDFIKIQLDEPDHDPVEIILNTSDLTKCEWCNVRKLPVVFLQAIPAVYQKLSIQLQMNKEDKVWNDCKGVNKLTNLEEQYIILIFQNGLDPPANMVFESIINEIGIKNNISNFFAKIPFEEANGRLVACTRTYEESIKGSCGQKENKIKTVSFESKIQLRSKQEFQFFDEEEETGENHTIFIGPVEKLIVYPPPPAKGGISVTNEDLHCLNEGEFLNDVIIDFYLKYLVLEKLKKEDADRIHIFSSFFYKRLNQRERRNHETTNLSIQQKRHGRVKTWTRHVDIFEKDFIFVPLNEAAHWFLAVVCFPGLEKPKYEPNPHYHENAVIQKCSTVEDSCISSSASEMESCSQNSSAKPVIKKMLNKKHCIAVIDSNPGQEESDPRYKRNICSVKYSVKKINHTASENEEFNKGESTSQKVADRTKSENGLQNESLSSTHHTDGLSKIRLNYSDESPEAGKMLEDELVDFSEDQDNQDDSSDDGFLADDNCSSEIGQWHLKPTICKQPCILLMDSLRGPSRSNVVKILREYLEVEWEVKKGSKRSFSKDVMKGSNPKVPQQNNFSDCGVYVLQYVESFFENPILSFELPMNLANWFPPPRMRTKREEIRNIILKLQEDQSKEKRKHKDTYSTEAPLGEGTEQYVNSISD

[7] = biological target: T2, Sentrin-specific protease 8 (Homo sapiens, UniProt Q96LD8); experiment: SENP8 protease inhibitors, SAR follow-up, biochemical, luminescence, set 2 (AID 588601); format: functional
T2 sequence (Q96LD8 whole entry): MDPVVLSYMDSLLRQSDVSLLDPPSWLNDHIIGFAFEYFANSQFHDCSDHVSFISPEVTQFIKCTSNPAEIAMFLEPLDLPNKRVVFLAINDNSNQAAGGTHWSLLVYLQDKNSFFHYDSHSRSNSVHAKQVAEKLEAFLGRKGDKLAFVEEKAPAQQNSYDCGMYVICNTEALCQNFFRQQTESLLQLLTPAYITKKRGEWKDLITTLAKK

Caspase-3 = biological target: T3, Caspase-3 (Homo sapiens, UniProt P42574); experiment: caspase-3 inhibitors as off-family protease, SAR follow-up, selectivity assay for SENP protease inhibitor project, biochemical, luminescence, set 2 (AID 588599); format: functional
T3 sequence (P42574 whole entry): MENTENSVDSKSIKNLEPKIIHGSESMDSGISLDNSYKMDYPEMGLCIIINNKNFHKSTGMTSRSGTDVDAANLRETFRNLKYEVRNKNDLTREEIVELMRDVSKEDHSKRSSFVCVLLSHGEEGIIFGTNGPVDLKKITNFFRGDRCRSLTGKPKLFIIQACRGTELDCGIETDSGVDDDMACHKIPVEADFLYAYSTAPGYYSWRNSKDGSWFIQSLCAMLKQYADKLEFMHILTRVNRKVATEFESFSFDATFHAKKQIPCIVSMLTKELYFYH

[8] = biological target: T4, Sentrin-specific protease 7 (Homo sapiens, UniProt Q9BQF6); experiment: SENP7 protease inhibitors, SAR follow-up, biochemical, luminescence, set 2 (AID 588600); format: functional
T4 sequence (Q9BQF6 whole entry): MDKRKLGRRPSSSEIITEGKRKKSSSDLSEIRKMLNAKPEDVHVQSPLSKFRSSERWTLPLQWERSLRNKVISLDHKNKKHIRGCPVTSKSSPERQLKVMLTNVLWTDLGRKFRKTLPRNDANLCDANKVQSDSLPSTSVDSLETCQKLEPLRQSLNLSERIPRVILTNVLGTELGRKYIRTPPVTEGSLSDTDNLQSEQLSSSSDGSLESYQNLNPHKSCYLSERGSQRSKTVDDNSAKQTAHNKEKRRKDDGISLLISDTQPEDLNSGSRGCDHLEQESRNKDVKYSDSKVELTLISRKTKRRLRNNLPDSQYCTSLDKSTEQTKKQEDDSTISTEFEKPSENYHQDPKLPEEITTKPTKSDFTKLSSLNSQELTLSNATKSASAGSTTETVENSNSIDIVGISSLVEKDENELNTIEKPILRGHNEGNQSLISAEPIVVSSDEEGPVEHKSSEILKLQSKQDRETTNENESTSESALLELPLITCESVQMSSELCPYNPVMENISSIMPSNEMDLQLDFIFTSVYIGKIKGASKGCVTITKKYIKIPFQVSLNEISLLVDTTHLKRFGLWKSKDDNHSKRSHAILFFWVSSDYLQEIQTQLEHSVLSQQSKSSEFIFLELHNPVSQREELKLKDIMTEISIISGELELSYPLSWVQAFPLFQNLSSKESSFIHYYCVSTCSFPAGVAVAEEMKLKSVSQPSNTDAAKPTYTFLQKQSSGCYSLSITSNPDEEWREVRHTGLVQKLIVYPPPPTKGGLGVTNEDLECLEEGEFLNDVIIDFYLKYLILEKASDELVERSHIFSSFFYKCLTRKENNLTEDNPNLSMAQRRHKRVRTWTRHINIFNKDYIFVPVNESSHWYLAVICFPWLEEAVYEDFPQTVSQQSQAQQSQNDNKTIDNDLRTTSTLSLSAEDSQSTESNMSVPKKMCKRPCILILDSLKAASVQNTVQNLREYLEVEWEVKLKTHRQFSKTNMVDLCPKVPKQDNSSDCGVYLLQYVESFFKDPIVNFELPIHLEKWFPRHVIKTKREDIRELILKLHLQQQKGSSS

[9] = cytotoxicity in HEK-293T cells, dose response, cytotoxicity control for BCR NF-kB inhibitor project, luminescence, B-cell screen hits (AID 489021); format: functional, cell-based;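 also: HEK-293T cells carrying an NF-kB luciferase reporter; cells exposed to compound for about 14 hours before viability readout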
HEK293 = experiment: cytotoxicity in HEK293T NF-kB-Luc cells, SAR follow-up, cytotoxicity control for NF-kB activator project, cell-based, resazurin fluorescence (AID 493251); format: functional; conditions: Homo sapiens

SMILES: COc1ccc(C(=O)N2CCN(c3ccnc4cc(Cl)ccc34)CC2)cc1
AC50 (Candida albicans [1]): 4.15 µM (active) | AC50 (Candida albicans [2]): 10.2 µM (active) | AC50 (Candida albicans [3]): 5.38 µM (active) | AC50 (Candida albicans [4]): 4.25 µM (active) | AC50 (Candida albicans [5]): 32.2 µM (active)

IC50 [6]: > 99 µM (inactive) | IC50 (Caspase-3): > 99 µM (inactive) | IC50 [8]: > 99 µM (inactive)
SMILES: Cc1[nH]c2ccccc2c1C(=O)C(=O)NCCCN1CCOCC1
IC50 [7]: > 99 µM (inactive)

SMILES: CCc1ccc(-c2nc(CSCC(=O)NC3CC3)c(C)o2)cc1
IC50 [9]: > 80 µM (inactive) | IC50 (HEK293): > 80 µM (inactive)

Source: ChEMBL document CHEMBL1201862, “PubChem BioAssay data set” (2004)
